“And” between values parts separate entries of the source, which are not always exact repeats. Identical values can stand only once. Like-named read-outs stand apart in the source and are kept apart here.
Assays:
MCF-7 [1] = test: cells; details: Homo sapiens, MCF7, 24 h, read-out: In vitro cytotoxicity IC50 (mean ± SD) MCF-7
EGFR TK enzyme = EGFR TK enzyme (Homo sapiens, UniProt P00533); test: biochemical; details: EGFR IC50 (mean ± SD), ATP 1.65 μM, 30 min, room temperature
MCF-7 [2] = details: for anti-proliferative activity category: MCF-7, in words; for IC50: human

Sequence of EGFR TK enzyme (P00533 25-1210): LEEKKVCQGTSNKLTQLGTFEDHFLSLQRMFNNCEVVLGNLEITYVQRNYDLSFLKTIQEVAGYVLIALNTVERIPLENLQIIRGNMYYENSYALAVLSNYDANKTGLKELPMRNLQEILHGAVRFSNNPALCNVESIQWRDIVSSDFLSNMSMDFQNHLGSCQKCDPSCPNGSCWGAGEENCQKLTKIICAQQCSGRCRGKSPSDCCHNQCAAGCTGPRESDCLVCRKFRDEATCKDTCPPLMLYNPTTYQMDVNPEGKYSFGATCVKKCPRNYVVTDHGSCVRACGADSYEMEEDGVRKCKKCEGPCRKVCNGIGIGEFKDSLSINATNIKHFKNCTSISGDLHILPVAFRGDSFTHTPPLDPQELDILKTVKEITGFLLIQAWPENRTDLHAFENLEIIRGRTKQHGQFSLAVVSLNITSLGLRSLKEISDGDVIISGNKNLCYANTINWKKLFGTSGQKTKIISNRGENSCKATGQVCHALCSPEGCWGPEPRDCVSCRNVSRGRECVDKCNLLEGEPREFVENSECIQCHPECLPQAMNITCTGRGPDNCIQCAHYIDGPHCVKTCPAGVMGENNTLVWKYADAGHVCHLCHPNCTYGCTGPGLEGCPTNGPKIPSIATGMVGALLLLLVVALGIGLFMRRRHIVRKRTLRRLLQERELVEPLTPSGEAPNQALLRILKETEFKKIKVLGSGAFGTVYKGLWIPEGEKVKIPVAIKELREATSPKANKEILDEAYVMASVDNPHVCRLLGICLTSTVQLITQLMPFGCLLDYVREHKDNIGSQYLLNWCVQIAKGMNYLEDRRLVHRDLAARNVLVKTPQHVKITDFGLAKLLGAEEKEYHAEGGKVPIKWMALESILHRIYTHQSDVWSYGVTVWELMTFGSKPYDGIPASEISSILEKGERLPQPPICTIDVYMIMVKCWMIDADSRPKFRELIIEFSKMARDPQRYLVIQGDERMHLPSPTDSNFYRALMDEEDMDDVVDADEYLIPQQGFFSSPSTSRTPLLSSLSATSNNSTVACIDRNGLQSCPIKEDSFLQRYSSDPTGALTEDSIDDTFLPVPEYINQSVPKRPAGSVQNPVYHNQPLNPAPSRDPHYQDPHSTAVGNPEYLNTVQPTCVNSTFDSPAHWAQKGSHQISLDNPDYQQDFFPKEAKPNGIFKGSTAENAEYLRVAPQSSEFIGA

Compound	IC50 (EGFR TK enzyme)	IC50 (MCF-7 [2])	IC50 (MCF-7 [1])	anti-proliferative activity category (MCF-7 [2])
Nc1cc(N2C(=O)c3ccccc3C2=O)nc(SCC(=O)NN=Cc2ccc(Cl)cc2)n1 [6c, 2-((4-Amino-6-(1,3-dioxoisoindolin-2-yl)pyrimidin-2-yl)thio)-N′-(4-chlorobenzylidene)acetohydrazide]	0.9 µM and 0.88 µM	31.8 ± 2 µM	37.7 ± 3.6 µM	moderate activity
COc1ccc(C=NNC(=O)CSc2nc(N)cc(N3C(=O)c4ccccc4C3=O)n2)cc1OC [6g, 2-((4-Amino-6-(1,3-dioxoisoindolin-2-yl)pyrimidin-2-yl)thio)-N′-(3,4-dimethoxy-benzylidene)acetohydrazide]			19.6 ± 1.5 µM	moderate activity
Nc1cc(N2C(=O)c3ccccc3C2=O)nc(SCC(=O)NN=Cc2cccc([N+](=O)[O-])c2)n1 [6a, 2-((4-Amino-6-(1,3-dioxoisoindolin-2-yl)pyrimidin-2-yl)thio)-N′-(3-nitrobenzylidene)acetohydrazide]			62 ± 3.3 µM	lowest anti-proliferative activity
O=C1CCC(N2C(=O)c3ccccc3C2=O)C(=O)N1 (stereo not shown) [Thalidomide, reference compound]			13.4 ± 0.5 µM	
Nc1cc(N2C(=O)c3ccccc3C2=O)nc(SCC(=O)NN=Cc2ccc(O)cc2)n1 [6e, 2-((4-Amino-6-(1,3-dioxoisoindolin-2-yl)pyrimidin-2-yl)thio)-N′-(4-hydroxybenzylidene)acetohydrazide]			75.4 ± 3.7 µM	lowest anti-proliferative activity
Nc1cc(N2C(=O)c3ccccc3C2=O)nc(SCC(=O)NN=Cc2ccc([N+](=O)[O-])cc2)n1 [6b, 2-((4-Amino-6-(1,3-dioxoisoindolin-2-yl)pyrimidin-2-yl)thio)-N′-(4-nitrobenzylidene)acetohydrazide]			48.4 ± 2.8 µM	moderate activity

Second part, led by results:

IC50 (EGFR TK enzyme)	IC50 (MCF-7 [2])	Compound	IC50 (MCF-7 [1])	anti-proliferative activity category (MCF-7 [2])
0.65 ± 0.02 µM	37.7 ± 2.4 µM	CCNC(c1ccccc1)c1c(N)[nH]c(=O)[nH]c1=O (stereo not shown) [10b, 6-Amino-5-((ethylamino)(phenyl)methyl)pyrimidine-2,4(1H,3H)-dione]	31.8 ± 2 µM	moderate activity
	14.2 ± 1.2 µM	CN(C)C(c1ccccc1)c1c(N)[nH]c(=O)[nH]c1=O (stereo not shown) [10d, 6-Amino-5-((dimethylamino)(phenyl)methyl)pyrimidine-2,4(1H,3H)-dione]	8.6 ± 0.7 µM	high anti-proliferative activity
0.99 ± 0.03 µM		CCCCNC(c1ccccc1)c1c(N)[nH]c(=O)[nH]c1=O (stereo not shown) [10c, 6-Amino-5-((butylamino)(phenyl)methyl)pyrimidine-2,4(1H,3H)-dione]	7.6 ± 0.5 µM	high anti-proliferative activity
4.6 ± 0.11 µM		CNC(c1ccccc1)c1c(N)[nH]c(=O)[nH]c1=O (stereo not shown) [10a, 6-Amino-5-((methylamino)(phenyl)methyl)pyrimidine-2,4(1H,3H)-dione]	8.6 ± 0.7 µM	

— PMC12498222 (RSC Advances, 2025)
